Results as given in patent US9902728B2, “Pyrrolo and pyrazolopyrimidines as ubiquitin-specific protease 7 inhibitors” (Forma Therapeutics, Inc., priority 2014, dated 2018).

Each compound was assayed against T1, USP7 (Homo sapiens, UniProt Q93009) (assay: USP7 Assay A (Ubitquin-Rhodamine 110 Assay)). Details: USP7 activity in USP7 assay A and B (table does not say which assay per compound); read-out: USP7_IC50.
T1 construct: USP7, construct USP7 (208-1102) 6*His, Viva Biotech; 6xHis (C); purchased Viva Biotech
Format: biochemical
In short: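 Ub-Rh110 cleavage in 20 mM Tris-HCl pH 8.0 with 1 mM GSH, 0.03% BGG, 0.01% Triton X-100; compound preincubated with enzyme 30 min before substrate.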

T1 sequence (Q93009 208-1102): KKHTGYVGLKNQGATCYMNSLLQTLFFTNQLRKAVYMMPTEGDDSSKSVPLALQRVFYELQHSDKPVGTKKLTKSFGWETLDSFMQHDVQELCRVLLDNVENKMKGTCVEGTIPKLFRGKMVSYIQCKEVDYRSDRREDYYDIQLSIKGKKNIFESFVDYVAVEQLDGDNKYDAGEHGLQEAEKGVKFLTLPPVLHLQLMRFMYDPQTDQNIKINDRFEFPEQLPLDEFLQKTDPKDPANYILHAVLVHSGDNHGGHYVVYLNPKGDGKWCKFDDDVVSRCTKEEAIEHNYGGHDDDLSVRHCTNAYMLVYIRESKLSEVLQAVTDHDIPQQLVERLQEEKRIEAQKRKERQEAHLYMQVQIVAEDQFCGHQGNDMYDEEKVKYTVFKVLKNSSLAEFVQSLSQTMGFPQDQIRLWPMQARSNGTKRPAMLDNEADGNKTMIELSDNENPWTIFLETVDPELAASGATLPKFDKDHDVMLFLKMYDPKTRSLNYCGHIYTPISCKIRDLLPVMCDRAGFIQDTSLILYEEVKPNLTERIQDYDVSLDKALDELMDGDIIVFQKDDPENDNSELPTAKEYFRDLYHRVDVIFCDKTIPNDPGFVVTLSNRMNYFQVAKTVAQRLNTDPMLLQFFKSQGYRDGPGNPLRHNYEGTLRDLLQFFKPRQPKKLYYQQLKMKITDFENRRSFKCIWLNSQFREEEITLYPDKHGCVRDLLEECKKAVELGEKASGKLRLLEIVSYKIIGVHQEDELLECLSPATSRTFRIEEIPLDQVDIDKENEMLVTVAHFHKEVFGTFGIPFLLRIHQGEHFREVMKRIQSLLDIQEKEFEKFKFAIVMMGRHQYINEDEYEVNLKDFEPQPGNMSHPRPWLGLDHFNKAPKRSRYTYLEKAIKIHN

Structure (SMILES) | IC50
O=C(c1ocnc1Cc1ccccc1)N1CCC(O)(Cn2cnc3c(cnn3-c3ccccc3)c2=O)CC1 [Compound I-1108] | > 10000 nM
CC(c1ccccc1)c1nn(C)cc1C(=O)N1CCC(O)(Cn2cnc3c(cnn3-c3ccc(F)cc3)c2=O)CC1 (stereo not shown) [Compound I-1025] | 200 to 1000 nM
CN1CCC2(CC1)CCN(c1ccc(-n3ncc4c(=O)n(CC5(O)CCN(C(=O)C6CC6)CC5)cnc43)cc1)CC2 [Compound I-1622] | < 200 nM
CC1(C(=O)N2CCC(O)(Cn3cnc4c(cnn4-c4ccc(-c5cnn(C6CCOCC6)c5)cc4)c3=O)CC2)CC1 [Compound I-1722] | < 200 nM
Cc1cc(N[C@H]2CC[C@H](C(=O)N3CCC(O)(Cn4cnc5c(cnn5-c5ccc(F)cc5)c4=O)CC3)CC2)no1 [Compound I-806] | 200 to 1000 nM
O=C(c1ccc(Oc2ccccn2)cn1)N1CCC(O)(Cn2cnc3c(cnn3-c3ccc(F)cc3)c2=O)CC1 [Compound I-547] | 1000 to 10000 nM
O=C(C1CC1)N1CCC(O)(Cn2cnc3c(ccn3-c3cccc(CN4CCCCC4)c3)c2=O)CC1 [Compound I-1009] | 1000 to 10000 nM
C[C@H]1CN(c2cccc(-n3ncc4c(=O)n(CC5(O)CCN(C(=O)C6(C)CC6)CC5)cnc43)c2)CCN1C [Compound I-1646] | < 200 nM
CN1CCN(c2cccc(-n3ncc4c(=O)n(CC5(O)CCN(C(=O)C[C@@H](C(F)F)n6cccn6)CC5)cnc43)c2)CC1 [Compound I-830] | 200 to 1000 nM
O=C(C1CC1)N1CCC(O)(Cn2cnc3c(cnn3-c3ccc(-c4ccc5[nH]ccc5n4)cc3)c2=O)CC1 [Compound I-1768] | 200 to 1000 nM
O=C(c1ccc(F)cc1)N1CCC(O)(Cn2cnc3c(cnn3-c3ccc(N4CCCn5nccc54)cc3)c2=O)CC1 [Compound I-1654] | 200 to 1000 nM
CC1(C(=O)N2CCC(O)(Cn3cnc4c(cnn4-c4ccc(OCC5CC(F)(F)C5)cc4)c3=O)CC2)CC1 [Compound I-1133] | < 200 nM
CC1(O)CCN(c2ccc(-n3ncc4c(=O)n(CC5(O)CCN(C(=O)C6CC6)CC5)cnc43)cc2)C1 (stereo not shown) [Compound I-1657] | 1000 to 10000 nM
O=C(C[C@H](C(F)F)n1ccc(F)n1)N1CCC(O)(Cn2cnc3c(cnn3-c3cccc(N4CC5CC5C4)c3)c2=O)CC1 (stereo partly shown) [Compound I-791] | 200 to 1000 nM
O=C(N1CCC(Oc2ccccn2)CC1)N1CCC(O)(Cn2cnc3c(cnn3-c3ccc(F)cc3)c2=O)CC1 [Compound I-610] | 1000 to 10000 nM
CC(=O)N1CCC(O)(Cn2cnc3c(cnn3-c3ccc(Cl)cc3)c2=O)CC1 [Compound I-1625] | > 10000 nM
Cn1ccc(OC2CCC(C(=O)N3CCC(O)(Cn4cnc5c(ccn5-c5ccc(F)cc5)c4=O)CC3)CC2)n1 (stereo not shown) [Compound I-1067] | 200 to 1000 nM
CN1CCN(c2ccc(-n3ncc4c(=O)n(CC5(O)CCN(C(=O)CC(C(F)F)n6cccn6)CC5)cnc43)cc2)CC1 (stereo not shown) [Compound I-825] | < 200 nM
CC1(C(=O)N2CCC(O)(Cn3cnc4c(cnn4-c4ccc(N5CCC(C6COC6)CC5)cc4)c3=O)CC2)CC1 [Compound I-1642] | 200 to 1000 nM
CC1(C(=O)N2CCC(O)(Cn3cnc4c(cnn4-c4ccc(OCC5(F)CCC5)cc4)c3=O)CC2)CCC1 [Compound I-1137] | < 200 nM
CC1(C(=O)N2CCC(O)(Cn3cnc4c(cnn4-c4ccc(N5CC(F)C5)cc4)c3=O)CC2)CC1 [Compound I-1679] | 200 to 1000 nM
Cc1ccn(-c2ccc(-n3ncc4c(=O)n(CC5(O)CCN(C(=O)C6(C)CC6)CC5)cnc43)cc2)n1 [Compound I-1710] | 200 to 1000 nM
CC1(C(=O)N2CCC(O)(Cn3cnc4c(cnn4-c4ccc(NC5CCC(F)(F)CC5)cc4)c3=O)CC2)CC1 [Compound I-786] | 200 to 1000 nM
O=C(c1ccc(-n2ncc3c2CNC3)cc1)N1CCC(O)(Cn2cnc3c(cnn3-c3ccc(F)cc3)c2=O)CC1 [Compound I-611] | 1000 to 10000 nM

Same assay, conditions: USP7 assay A and B (table does not say which assay per compound); read-out: USP7_IC50

Structure (SMILES) | IC50
C#CC(=O)N(C)C1CC(C(=O)N2CCC(O)(Cn3cnc4c(cnn4-c4ccc(F)cc4)c3=O)CC2)C1 (stereo not shown) [Compound I-589] | 1000 to 10000 nM
O=C(N1CCC(O)(Cn2cnc3c(cnn3-c3ccccc3)c2=O)CC1)C12CC(C1)C2 [Compound I-289] | 200 to 1000 nM
O=C(c1ccc(-c2ccc(-n3ncc4c(=O)n(CC5(O)CCN(C(=O)C6CC6)CC5)cnc43)cc2)cc1)N1CCCC1 [Compound I-333] | 1000 to 10000 nM
C[C@H](CC(=O)N1CCC(O)(Cn2cnc3c(cnn3-c3ccccc3)c2=O)CC1)n1cccc1 [Compound I-177] | < 200 nM
O=C(c1cnc(C2CC2)o1)N1CCC(O)(Cn2cnc3c(cnn3-c3ccc(-c4ccccc4)cc3)c2=O)CC1 [Compound I-1659] | 200 to 1000 nM
CN(C)C(=O)N1CCC(O)(Cn2cnc3c(cnn3-c3ccc(N4CCN5CCCCC5C4)cc3)c2=O)CC1 (stereo not shown) [Compound I-1525] | 1000 to 10000 nM
O=C(C1CC1)N1CCC(O)(Cn2cnc3c(cnn3-c3ccc(-c4ccccc4)c(N4CCNCC4)c3)c2=O)CC1 [Compound I-698] | 200 to 1000 nM
O=C(C1CC1)N1CCC(O)(Cn2cnc3c(cnn3-c3cccc(NCCN4CCOCC4)c3)c2=O)CC1 [Compound I-1194] | 1000 to 10000 nM
CC(=O)N1CCN(c2ccc(-n3ncc4c(=O)n(CC5(O)CCN(C(=O)C6CC6)CC5)cnc43)cc2)CC1 [Compound I-1211] | 1000 to 10000 nM
O=C(c1ccc(Cl)cc1Cl)N1CCC(O)(Cn2cnc3c(cnn3-c3ccc(F)cc3)c2=O)CC1 [Compound I-317] | 200 to 1000 nM
CN(C)CCOc1ccc(-c2ccc(-n3ncc4c(=O)n(CC5(O)CCN(C(=O)C6CC6)CC5)cnc43)cc2)cc1 [Compound I-369] | 1000 to 10000 nM
O=C(c1ccc(F)cc1)N1CCC(O)(Cn2cnc3c(cnn3-c3ccc(F)c(O)c3)c2=O)CC1 [Compound I-632] | 1000 to 10000 nM
C[C@@H](n1cnc2c(cnn2-c2ccc(F)cc2)c1=O)C1(O)CCN(C(=O)c2ccc(F)cc2)CC1 [Compound I-44] | 1000 to 10000 nM
CN1CCC(Oc2ccc(-c3ccc(-n4ncc5c(=O)n(CC6(O)CCN(C(=O)C7CC7)CC6)cnc54)cc3)cc2)C1 (stereo not shown) [Compound I-678] | 200 to 1000 nM
N#Cc1ccc(Nc2ccc(-n3ncc4c(=O)n(CC5(O)CCN(C(=O)C6CC6)CC5)cnc43)cc2)nc1 [Compound I-1277] | 1000 to 10000 nM
CN1CCCC(CNc2ccc(-n3ncc4c(=O)n(CC5(O)CCN(C(=O)C6CC6)CC5)cnc43)cc2)C1 (stereo not shown) [Compound I-1151] | 200 to 1000 nM
NC(=O)c1ccc(C(=O)N2CCC(O)(Cn3cnc4c(cnn4-c4ccccc4)c3=O)CC2)cc1 [Compound I-179] | 200 to 1000 nM
O=C(C1CC1)N1CCC(O)(Cn2cnc3c(cnn3-c3ccc(N4CCCc5ccccc54)cc3)c2=O)CC1 [Compound I-1082] | 1000 to 10000 nM
CN(C)c1ccc(-n2ncc3c(=O)n(CC4(O)CCN(C(=O)c5ccc(F)cc5)CC4)cnc32)cc1 [Compound I-707] | 200 to 1000 nM
COc1ccc(OC)c(C(=O)N2CCC(O)(Cn3cnc4c(cnn4-c4ccccc4)c3=O)CC2)c1 [Compound I-221] | 1000 to 10000 nM

Structure (SMILES) | IC50
Cc1ccc(C(=O)N2CCC(O)(Cn3cnc4c(cnn4-c4ccccc4)c3=O)CC2)cc1Cl [Compound I-211] | 200 to 1000 nM
O=C(Nc1ccc(-n2ncc3c(=O)n(CC4(O)CCN(C(=O)C5CC5)CC4)cnc32)cc1)C1CC1 [Compound I-1377] | 1000 to 10000 nM
O=C(c1cnc(C2CC2)o1)N1CCC(O)(Cn2cnc3c(cnn3-c3ccc(Cl)cc3)c2=O)CC1 [Compound I-1130] | 200 to 1000 nM
O=C(c1ccccc1)N1CCC(O)(Cn2cnc3c(cnn3-c3cccc(O)c3)c2=O)CC1 [Compound I-19] | 1000 to 10000 nM
Cc1ccc(-n2ncc3c(=O)n(CC4(O)CCN(C(=O)c5cnc(C)o5)CC4)cnc32)cc1 [Compound I-1514] | 200 to 1000 nM
C[C@H](CC(=O)N1CCC(O)(Cn2cnc3c(cnn3-c3ccc(F)cc3)c2=O)CC1)c1ccccc1 [Compound I-65] | < 200 nM
O=C(c1cnc(N2CCCCC2)o1)N1CCC(O)(Cn2cnc3c(cnn3-c3ccc(F)cc3)c2=O)CC1 [Compound I-536] | 1000 to 10000 nM
NC(=O)COc1ccc(-n2ncc3c(=O)n(CC4(O)CCN(C(=O)c5ccc(F)cc5)CC4)cnc32)cc1 [Compound I-1307] | 1000 to 10000 nM
CN(C)S(=O)(=O)Nc1ccc(-n2ncc3c(=O)n(CC4(O)CCN(C(=O)C5CC5)CC4)cnc32)cc1 [Compound I-505] | 1000 to 10000 nM
Cn1ncc2c(=O)n(CC3(O)CCN(C(=O)c4ccc(-c5ccccc5CC#N)cc4)CC3)cnc21 [Compound I-83] | 1000 to 10000 nM
C[C@@H](CC(=O)N1CCC(O)(Cn2cnc3c(cnn3-c3ccccc3)c2=O)CC1)n1cccc1 [Compound I-178] | 1000 to 10000 nM
CN(C(=O)N1CCC(O)(Cn2cnc3c(cnn3C)c2=O)CC1)c1ccc(-c2ccccc2)cc1 [Compound I-4, N-([1,1′-biphenyl]-4-yl)-4-hydroxy-N-methyl-4-((1-methyl-4-oxo-1,4-dihydro-5H-pyrazolo[3,4-d]pyrimidin-5-yl)methyl)piperidine-1-carboxamide] | > 10000 nM
O=C(c1ccc(F)c(F)c1)N1CCC(O)(Cn2cnc3c(cnn3-c3ccc(F)cc3)c2=O)CC1 [Compound I-309] | 1000 to 10000 nM
CN1CCCCC1COc1cccc(-n2ncc3c(=O)n(CC4(O)CCN(C(=O)c5ccc(F)cc5)CC4)cnc32)c1 (stereo not shown) [Compound I-1314] | 200 to 1000 nM
Cc1cc(C)cc(C(=O)N2CCC(O)(Cn3cnc4c(cnn4-c4ccccc4)c3=O)CC2)c1 [Compound I-197] | 1000 to 10000 nM
O=C(C1CC1)N1CCC(O)(Cn2cnc3c(cnn3-c3ccc(NS(=O)(=O)Cc4ccc(F)cc4)cc3)c2=O)CC1 [Compound I-1433] | 1000 to 10000 nM
CNC(=O)Nc1cccc(-n2ncc3c(=O)n(CC4(O)CCN(C(=O)C5CC5)CC4)cnc32)c1 [Compound I-507] | 1000 to 10000 nM
CN(C)C(=O)N1CCC(O)(Cn2cnc3c(cnn3-c3cccc(N4C[C@@H](O)[C@H](F)C4)c3)c2=O)CC1 [Compound I-974] | 1000 to 10000 nM
CN(C)C(=O)N1CCC(O)(Cn2cnc3c(cnn3-c3ccc(NCCN4CCCCC4)cc3)c2=O)CC1 [Compound I-1543] | 200 to 1000 nM
CC(CC(=O)N1CCC(O)(Cn2cnc3c(cnn3-c3ccc(F)cc3)c2=O)CC1)n1cccn1 (stereo not shown) [Compound I-513] | 200 to 1000 nM
